Experimental data reported in patent US20250222100A1, “COMPLETE TOLEROGENIC ADJUVANT AND METHODS OF USING THE SAME” (THE BOARD OF TRUSTEES OF THE UNIVERSITY OF ILLINOIS, priority 2024, published 2025).
Counter-ions that a name gives are not always drawn.

Experiments:
[1] = test system: antigen-reactive Treg and Teff cells; test: Ki67 assay of antigen-reactive T cells in AFK mice; format: in vivo, AFK mice (C57BL/6 Apoe-/- Foxp3-eGFP Ki67-tagRFP); conditions: FTY720 after 8206
Method: Preparation and Injection of Composition 8206. Composition 8206 was prepared in the same steps as described for 8203 (Example 1), except that R848 was used in place of MPLA. It was injected subcutaneously at the back flank in 50 μl of PBS. PBS containing DMSO (as “PBS”), which was the initial solvent for rapamycin and R848, was used as a control.
Ki67-TagRFP-Based In Vitro Proliferation Assay for T Cells (“Ki67 Assay”). Total cells were isolated from lymphoid organs, washed twice in RPMI 1640/10% FCS, and counted by flow cytometry as described in Example 1. A portion of the isolated cells was cultured at 1×10^6 cells/well in a 96-well U-bottom plate. The wells were filled with 200 μl of RPMI 1640/10% FCS supplemented with 2-mercaptoethanol (50 μM), murine IL-2 (20 ng/ml), MPLA (100 ng/ml), sodium pyruvate (1 mM), and a peptide antigen (3 μg/ml) or DMSO (as a solvent control for the antigen). After 5 days, the cells were analyzed by flow cytometry with a BD FACS Melody. Proliferating Treg and Teff cells were identified as CD4+Foxp-eGFP+Ki67-TagRFP+CD62L1o and CD4+Foxp-eGFP Ki 67-TagRFP+CD62L10 populations, respectively; the cells were counted by the method of Schlenke ((1998) Cytometry 33:310-317). […] The difference was expressed as count/organ by multiplying the total number of cells in an organ divided by the portion used in the assay. […]

[2] = test system: KJ1-26+ Treg and Teff cells in DLN, NLNs and spleen; test: Inhibition of T cell egress with FTY720 in the model; format: in vivo, BALB/c Foxp3-eGFP mice; conditions: FTY720 with OVA-in-8203
Method: Inhibition of T Cell Egress with FTY720. FTY720 was dissolved in DMSO at 20 μg/μl. On day 5 in the model, 1 μl of FTY720 was mixed with one dose of OVA-in-8203, and the mixture was injected into the primed footpad. As a control, 1 μl of DMSO was used in place of FTY720, and the mixture was injected into a control group. On days 6 and 7, the mice were given additional injections (i.p.) of FTY720 (or DMSO) at 1 μl (diluted in 100 μl PBS)/mouse/day. On day 8, KJ1-26^+ Treg and Teff cells in the DLN, NLNs, and the spleen were counted, as described earlier.

[3] = test system: monocyte-derived macrophages in DLN, NLN and spleen; test: Systemic MMφ influx into draining and non-draining lymph nodes (R848, 8206); format: in vivo, C56BL/6 mice
Method: FIGS. 9A-9B show the effect of R848 on draining lymph node (DLN) versus non-draining lymph node (NLN). (FIG. 9A) C56BL/6 mice (10-week-old) were injected at the right-footpad with 20 μl of PBS containing DMSO (control), 3 μg of MPLA, or an equal molar amount (0.6 μg) of R848. At 24 hours, monocyte-derived macrophages (MM) in both the DLN and the NLN were counted by flow cytometry. Data are mean±SD of four experiments (on a log scale). * p≤0.001 (one-way ANOVA). (FIG. 9B) Dose-response analysis of R848. C56BL/6 mice (10-week-old) were injected subcutaneously at the back flank with 50 μl of PBS containing 8 μg of dexamethasone, 20 μg of rapamycin, and an indicated dose of R848. At 24 h, MMφ in popliteal lymph nodes were counted. Shown is a nonlinearly fitted substrate inhibition curve for mean±SD of 4-8 LNs. * p≤0.01 (one-way ANOVA).
C56BL/6 mice (10-week-old) were injected subcutaneously at the back flank with 8206 or PBS. At 24 hours, MMO in popliteal (PLN), axillary (ALN), mesenteric (MLN), and caudal mediastinal (CLN) lymph nodes and the spleen (SP) were counted. Data are mean±SD of four experiments (on a log scale). *p≤0.01 (t-test).
Preparation and Injection of Composition 8206. Composition 8206 was prepared in the same steps as described for 8203 (Example 1), except that R848 was used in place of MPLA. It was injected subcutaneously at the back flank in 50 μl of PBS. […]

[4] = test system: KJ1-26+ Treg and Teff cells; test: Mouse model testing tolerogenic adjuvants (the model): KJ1-26+ T cell counts and proliferation; format: in vivo, BALB/c Foxp3-eGFP mice; conditions: OVA with indicated components once every 3 days
Method: Mouse Model Testing Tolerogenic Adjuvants (“the Model”). The model was generated as follows: On day 0, whole blood was collected with heparin as the anticoagulant from a DO11.10 Foxp3-eGFP mouse. The blood was diluted 1:50 in PBS and transfused intravenously (i.v.) into sex-matched syngeneic BALB/c Foxp3-eGFP mice at ˜100 μl (containing ˜4,000 CD4+KJ1-26^+ cells) per mouse. On day 1, the recipients were injected at a footpad with 100 μg of OVA in 20 μl of PBS (see “Footpad Injection”) and let rest. On day 5, they were used as the model.
Determination of CD4^+ T cell Counts in the Model. A cell suspension was prepared from the DLN, NLNs, or the spleen as described herein. For counting CD4^+ T cells in the DLN, a portion of the DLN cell suspension was stained with PE/Cy7 anti-CD3 and APC anti-CD4 and analyzed by flow cytometry. The total CD4^+ T cell count (CD3+CD4+) in the suspension was determined by the method of Schlenke et al. ((1998) Cytometry 33:310-317). […] Cells were analyzed by flow cytometry. The total counts in the suspension for KJ1-26^+ Treg, KJ1-26^+ Teff, host Treg, and host Teff cells were calculated as portions of the total CD4^+ T cell count. The count in percent for Treg cells (“% Treg”) was calculated as % of the total Treg and Teff counts combined. […]

[5] = test system: MMφs, DCs, Treg cells and Teff cells in draining lymph node; test: Adjuvant-induced potentiation in lymphoid organs after footpad injection; format: in vivo, mouse; conditions: one day
Method: Footpad Injection. “A footpad” means the footpad of the right hind leg. Adjuvant components, antigens, or their combinations were injected subcutaneously (s.c.) between the 3rd and 4th toes in a volume of ˜20 μl in phosphate-buffered saline (PBS) with a BD insulin syringe.
Dose-Response Analysis. For dose-response analysis of MPLA, the reagent was serially diluted in DMSO; 5 μl of the diluted reagent were mixed with 100 μl of PBS and the resulting mixture was injected at 20 μl/footpad. For dose 0, 5 μl of DMSO were mixed with 100 μl of PBS and the resulting mixture was injected. Dose-response analysis of rapamycin was performed similarly, except that PBS containing 3 μg of MPLA was used in place of PBS.
Analysis of Adjuvant-Induced Potentiation in Lymphoid Organs. […] Cells were analyzed by flow cytometry. […] The total counts of MMos (CD11^loCD40^lo) (Zheng et al. (2013) Eur. J. Immunol. 43:219-227) and DCs (all the CD11+CD40^+ cells after excluding the CD11^loCD40^lo cells) (Zheng et al. (2013) Eur. J. Immunol. 43:219-227) in the cell suspension were determined by the method of Schlenke et al. ((1998) Cytometry 33:310-317). The MMφ count in percent was calculated as % of the total MMO and DC counts combined. […]

## CCCCCCCCc1ccc(CCC(N)(CO)CO)cc1 [FTY720, fingolimod HCl]
[1]
  accumulation of P210m-reactive Treg cells in spleen with egress blocker: could be inhibited
[2]
  gain of KJ1-26+ Treg counts in NLNs and spleen: could be blocked

## CCOCc1nc2c(N)nc3ccccc3c2n1CC(C)(C)O [R848, resiquimod]
[3]; combined with 8 μg dexamethasone and 20 μg rapamycin, s.c. back flank
  optimal dose for systemic MMφ effect: about 6 μg

## monophosphoryl lipid A [MPLA]
[3]; footpad, 24 hours
  attraction of MMφs to non-draining lymph nodes: could not
[4]
  role of component in prolonging Treg cell expansion / shortening Teff cell expansion in DLN: not required here for either effect
[5]; injected alone into a footpad, BALB/c mouse
  influx of MMφs, Teff cells, DCs and Treg cells to the DLN: induced an influx of MMφs and Teff cells preferentially over that of DCs and Treg cells
[5]; single footpad injection, BALB/c
  abundance and absolute number of MMφs in the DLN: attract MMS
